Columns and labels:
fibronectin = experiment: Expression of extracellular matrix component fibronectin, RT-PCR in NIH3T3 cells; assay type: cell-based, mouse; conditions: 10 μM or 50 μM peptide, 24 hours, FIG. 2 and FIG. 3
Description: (§1) In this example, the aim was to confirm the effect of the peptide according to an example on improving endogenous skin aging, including improvement of wrinkles and enhancement of elasticity, etc., by evaluating the expression levels of collagen type 1 (Col1a1), fibronectin, and elastin, which are known components of the dermis.
(§2) Specifically, NIH3T3 cells were seeded in a 6-well plate at a density of 3×10^5 cells/well and cultured for 24 hours. Next, the cells were washed once with serum-free DMEM media, and 10 μM or 50 μM of a peptide consisting of an amino acid sequence of SEQ ID NO: 1 was dispensed into 1 mL of the serum-free media, and cultured in a CO2 incubator at 37° C. for 24 hours. Next, the culture was washed twice with PBS, and RNA was isolated from the culture using easy blue (iNtRON, Cat. No.: 17061, Korea). Next, using an RT kit (Enzynomics, Cat. NO.: RT200, Korea), the isolated RNA was reverse transcribed to synthesize the respective cDNA. Next, using the synthesized 1 μg cDNA, primers for Col1a1, fibronectin, or elastin, and a PCR kit (Enzynomics, Cat. No.: P581T, Korea), polymerase chain reaction (PCR) was performed. Meanwhile, in this example, an untreated group was used as a control group, and a group to which TGF-β1 was added was used as a positive control group, the nucleotide sequences of the primers used in this example are shown in Table 2 below.

HaCaT cells [1] = experiment: Inhibition of apoptosis induced by ultraviolet rays, MTT survival rate, HaCaT; assay type: cell-based; conditions: 50 μM or 100 μM peptide, 15 m J/cm2 ultraviolet rays, FIG. 7
Description: (§3) In this example, the aim was to confirm the effect of the peptide according to an example on the inhibition of apoptosis or cell recovery of skin cells induced by ultraviolet rays, by evaluating the change in survival rate of skin cells whose apoptosis was induced by ultraviolet irradiation.
(§4) Specifically, NIH3T3 cells or HaCaT cells were seeded in a 96-well plate at a density of 1×10^4 cells/well and cultured for 24 hours. Next, the cells were washed once with serum-free DMEM media, and 50 μM or 100 μM of the peptide consisting of an amino acid sequence of SEQ ID NO: 1 was dispensed into 200 μL of the medium. The culture medium dispensed with the peptide was cultured in a CO2 incubator at 37° C. for 1 hour, transferred to an e-tube, mixed with 100 ul of PBS, and dispensed into a well plate. Next, using a UV irradiator (VILBER LOURMAT, Cat No.: 3102-BSU, France), 6 J/cm2 ultraviolet rays were irradiated to NIH3T3 cells, and […] ultraviolet rays were irradiated to HaCaT cells. Next, PBS in the well plate was removed, MTT (Sigma, Cat. No.: M2003, USA) solution was dispensed into each well at 0.5 mg/ml, and cultured in a CO2 incubator at 37° C. for […]. Next, the absorbance of the culture was measured at 540 nm using a microplate reader (Molecular Devices, USA). […]

elastin = experiment: Expression of extracellular matrix component elastin, RT-PCR in NIH3T3 cells; assay type: cell-based, mouse; conditions: 10 μM or 50 μM peptide, 24 hours, FIG. 2 and FIG. 3
Description: as §1, §2

sirtuin-1 (SIRT-1) = experiment: Expression of skin barrier factor SIRT-1, RT-PCR in HaCaT cells; assay type: cell-based; conditions: 50 μM or 1000 μM peptide, 24 hours, FIG. 4 and FIG. 5
Description: (§5) In this example, the aim was to confirm the effect of the peptides according to an example on strengthening the skin barrier, by evaluating the expression levels of sirtuin-1 (SIRT-1) or aquaporin-3 (AQP3).
(§6) Specifically, HaCaT cells were seeded in a 6-well plate at a density of 3×10^5 cells/well and cultured for 24 hours. Next, the cells were washed once with serum-free DMEM media, and 50 μM or 1000 μM of a peptide consisting of an amino acid sequence of SEQ ID NO: 1 was dispensed into 1 mL of the serum-free media, and cultured in a CO2 incubator at 37° C. for 24 hours. Next, the culture was washed twice with PBS, and RNA was isolated from the culture using easy blue (iNtRON, Cat. No.: 17061, Korea). Next, using an RT kit (Enzynomics, Cat. NO.: RT200, Korea), the isolated RNA was reverse transcribed to synthesize the respective cDNA. Next, using the synthesized 1 μg cDNA, primers for SIRT-1 or AQP3, and a PCR kit (Enzynomics, Cat. No.: P581T, Korea), polymerase chain reaction (PCR) was performed. Meanwhile, in this example, an untreated group was used as a control group, and a group to which EGF was added was used as a positive control group, the nucleotide sequences of the primers used in this example are shown in Table 3 below.

aquaporin-3 (AQP3) = experiment: Expression of skin barrier factor AQP3, RT-PCR in HaCaT cells; assay type: cell-based; conditions: 50 μM or 1000 μM peptide, 24 hours, FIG. 4 and FIG. 5
Description: as §5, §6

HaCaT cells [2] = experiment: Reduction of reactive oxygen species increased by ultraviolet rays, DCF-DA flow cytometry, HaCaT; assay type: cell-based; conditions: 50 μM or 1000 μM peptide, 15 J/cm2 ultraviolet rays, 24 hours, FL1 fluorescence, FIG. 9
Description: (§7) In this example, the aim was to confirm the effect of the peptide according to an embodiment on the antioxidant effect in damaged skin, by evaluating the change in the level of reactive oxygen species in skin cells increased by ultraviolet irradiation.
(§8) Specifically, NIH3T3 cells or HaCaT cells were seeded in a 6-well plate at a density of 5×10^5 cells/well and cultured for 24 hours. Next, the cells were washed once with serum-free DMEM media, and 50 μM or 1000 μM of a peptide consisting of an amino acid sequence of SEQ ID NO: 1 was dispensed into 1 mL of the serum-free media, and cultured in a CO2 incubator at 37° C. for […]. Next, the above culture was transferred to an e-tube, mixed with 1 ml of PBS, and dispensed into a well plate. Next, using a UV irradiator (VILBER LOURMAT, Cat No.: 3102-BSU, France), 6 J/cm2 ultraviolet rays were irradiated to NIH3T3 cells, and 15 J/cm2 ultraviolet rays were irradiated to HaCaT cells. Next, the PBS in the well plate was removed, 900 μL of the culture medium in which the peptides were dispensed was added, and the plate was cultured in a CO2 incubator at 37° C. for 24 hours. […] After washing the centrifuged cells with PBS, FL1 fluorescence values were measured through flow cytometry (FACS, BD, USA). […]

NIH3T3 cells [3] = experiment: Inhibition of apoptosis induced by ultraviolet rays, MTT survival rate, NIH3T3; assay type: cell-based, mouse; conditions: 50 μM or 100 μM peptide, 6 J/cm2 ultraviolet rays, FIG. 6
Description: as §3, §4

collagen type 1 (Col1a1) = experiment: Expression of extracellular matrix component Col1a1, RT-PCR in NIH3T3 cells; assay type: cell-based, mouse; conditions: 10 μM or 50 μM peptide, 24 hours, FIG. 2 and FIG. 3
Description: as §1, §2

NIH3T3 cells [4] = experiment: Reduction of reactive oxygen species increased by ultraviolet rays, DCF-DA flow cytometry, NIH3T3; assay type: cell-based, mouse; conditions: 50 μM or 1000 μM peptide, 6 J/cm2 ultraviolet rays, 24 hours, FL1 fluorescence, FIG. 8
Description: as §7, §8

NIH3T3 cells [5] = experiment: Proliferation of skin cells, MTT survival rate; assay type: cell-based, mouse; conditions: 50 μM or 100 μM peptide, 72 hours, FIG. 1
Description: In this example, the aim was to confirm the effect of a peptide according to an example on proliferation of skin cells, by evaluating changes in survival rate of NIH3T3 cells, which are mouse fibroblasts.
Specifically, NIH3T3 cells were seeded in a […] at a density of 1×10^4 cells/well and cultured for 24 hours. Next, the cells were washed once with serum-free DMEM media, and 50 μM or 100 μM of a peptide consisting of an amino acid sequence of SEQ ID NO: 1 was dispensed into 200 μL of the serum-free media, and cultured in a CO2 incubator at 37° C. for 72 hours. Next, the culture was washed twice with PBS, and MTT solution was dispensed into each well at a concentration of 0.5 mg/ml. Next, it was shaded from light and cultured in a CO2 incubator at 37° C. for 4 hours, and the absorbance at 540 nm was measured using a microplate reader (Molecular Devices, USA).

## EVVDI [SEQ ID NO: 1]
fibronectin
  expression of fibronectin: increased
HaCaT cells [1]
  cell survival rate of keratinocytes reduced by ultraviolet irradiation: restored
elastin
  expression of elastin: increased
sirtuin-1 (SIRT-1)
  expression of SIRT-1: increased
aquaporin-3 (AQP3)
  expression of AQP3: increased
HaCaT cells [2]
  level of reactive oxygen species in keratinocytes increased by ultraviolet irradiation: reduced
NIH3T3 cells [3]
  cell survival rate of fibroblasts reduced by ultraviolet irradiation: restored
Collagen type 1 (Col1a1)
  expression of Col1a1: increased
NIH3T3 cells [4]
  level of reactive oxygen species in fibroblasts increased by ultraviolet irradiation: reduced
NIH3T3 cells [5]
  proliferation of fibroblasts (cell survival rate): promoted

— patent US20260200976A1, “PEPTIDE HAVING ACTIVITY OF IMPROVING STATE OF SKIN, AND USE THEREOF” (CAREGEN CO., LTD., priority 2022, published 2026)
